# In patent publication US9169254B2, “Spiroimidazolone derivative” (Chugai Seiyaku Kabushiki Kaisha, priority 2009, dated 2015):
# Molecular target: T1, human PTH1 receptor (Homo sapiens, UniProt Q03431)
# T1 sequence (Q03431 27-593): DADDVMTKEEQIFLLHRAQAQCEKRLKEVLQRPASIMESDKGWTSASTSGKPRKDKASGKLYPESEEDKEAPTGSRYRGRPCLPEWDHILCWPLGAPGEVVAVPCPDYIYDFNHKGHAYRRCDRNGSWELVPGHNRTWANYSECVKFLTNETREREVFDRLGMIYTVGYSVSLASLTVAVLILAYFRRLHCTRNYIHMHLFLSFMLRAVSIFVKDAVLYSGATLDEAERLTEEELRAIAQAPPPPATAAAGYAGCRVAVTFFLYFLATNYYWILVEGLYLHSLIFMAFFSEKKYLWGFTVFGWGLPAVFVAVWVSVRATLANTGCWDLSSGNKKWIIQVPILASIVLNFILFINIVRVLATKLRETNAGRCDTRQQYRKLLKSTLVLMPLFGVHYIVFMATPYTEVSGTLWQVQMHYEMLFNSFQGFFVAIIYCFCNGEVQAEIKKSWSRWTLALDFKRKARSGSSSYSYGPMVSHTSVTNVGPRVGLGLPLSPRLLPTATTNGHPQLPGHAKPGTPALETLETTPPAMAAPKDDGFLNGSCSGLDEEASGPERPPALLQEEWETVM
# Assay: In vitro cAMP signal activity in HKRK-B7 cells (LLC-PK1 cells overexpressing the human PTH1 receptor)
# Assay type: cell-based
# Conditions: 0.1 µM
row,Compound,cAMP production activity (%)
1,Cc1cc2ccc1CCS(=O)(=O)N1CCC3(CC1)N=C(NC3=O)c1cc(cc(C(F)(F)F)c1)OCC(F)(F)C(F)(F)C(F)(F)COCCN(C)C2=O [Compound 1441],5.0

# Same assay, conditions: HKRK-B7 cells; compound at 1×10^−3 M; cAMP produced as percentage of that produced by hPTH(1-34) at 100 nM
row,Compound,cAMP production activity (%)
1,"CC(=O)N(c1cc(C)c(/C=C/S(=O)(=O)N2CCC3(CC2)N=C(C2CCCCC2)NC3=O)c(C)c1)C1CCC(O)CC1 (stereo not drawn) [Compound 709, N-{4-[(E)-2-(2-cyclohexyl-4-oxo-1,3,8-triaza-spiro[4.5]dec-1-ene-8-sulfonyl)-vinyl]-3,5-dimethyl-phenyl}-N-(4-hydroxy-cyclohexyl)-acetamide]",58
2,"Cc1cc(C(=O)O)cc(C)c1/C=C/S(=O)(=O)N1CCC2(CC1)N=C(C1CCC(CCC(F)(F)F)CC1)NC2=O (stereo not drawn) [Compound 547, 3,5-dimethyl-4-((E)-2-{4-oxo-2-[4-(3,3,3-trifluoro-propyl)-cyclohexyl]-1,3,8-triaza-spiro[4.5]dec-1-ene-8-sulfonyl}-vinyl)-benzoic acid]",52
3,"O=C1NC(c2cccc(C(F)(F)F)c2)=NC12CCN(S(=O)(=O)c1ccc3ccccc3c1)CC2 [Compound 67, 8-(naphthalene-2-sulfonyl)-2-(3-trifluoromethyl-phenyl)-1,3,8-triaza-spiro[4.5]dec-1-en-4-one]",53
4,"Cc1cc(C(=O)N(C)CCO)ccc1/C=C/S(=O)(=O)N1CCC2(CC1)N=C(c1cccc(C(F)(F)F)c1)NC2=O [Compound 214, N-(2-hydroxy-ethyl)-3,N-dimethyl-4-{(E)-2-[4-oxo-2-(3-trifluoromethyl-phenyl)-1,3,8-triaza-spiro[4.5]dec-1-ene-8-sulfonyl]-vinyl}-benzamide]",84
5,"Cc1oc(-c2ccccc2)nc1CC(=O)N1CCCC(C2=NC3(CCN(S(=O)(=O)CCc4cccc5ccccc45)CC3)C(=O)N2)C1 (stereo not drawn) [Compound 434, 2-{1-[2-(5-methyl-2-phenyl-oxazol-4-yl)-acetyl]-piperidin-3-yl}-8-(2-naphthalen-1-yl-ethanesulfonyl)-1,3,8-triaza-spiro[4.5]dec-1-en-4-one]",25
6,"CN[C@@H]1CCN(C(=O)c2cc(C)c(/C=C/S(=O)(=O)N3CCC4(CC3)N=C(c3cccc(OC(F)(F)F)c3)NC4=O)c(C)c2)C1 [Compound 398, 8-{(E)-2-[2,6-dimethyl-4-((R)-3-methylamino-pyrrolidine-1-carbonyl)-phenyl]-ethenesulfonyl}-2-(3-trifluoromethoxy-phenyl)-1,3,8-triaza-spiro[4.5]dec-1-en-4-one]",52
7,"CCCc1cc2ccc(C3=NC4(CCN([S@TB18](=O)(=O)/C=C/c5c(C)cc(N(C)C(N)=O)cc5C)CC4)C(=O)N3)cc2o1 [Compound 1127, 1-(3,5-dimethyl-4-{(E)-2-[4-oxo-2-(2-propyl-benzofuran-6-yl)-1,3,8-triaza-spiro[4.5]dec-1-ene-8-sulfonyl]-vinyl}-phenyl)-1-methyl-urea]",91

# Now from value to molecule:
row,cAMP production activity (%),Compound
1,112,"Cc1cc(N(C)C(N)=O)cc(C)c1CC[S@TB4](=O)(=O)N1CCC2(CC1)N=C(CCC(F)(F)CCCCCC(F)(F)F)NC2=O [Compound 1147, 1-(3,5-dimethyl-4-{2-[4-oxo-2-(3,3,9,9,9-pentafluoro-nonyl)-1,3,8-triaza-spiro[4.5]dec-1-ene-8-sulfonyl]-ethyl}-phenyl)-1-methyl-urea]"
2,21,"O=C1NC(C2CCCCC2)=NC12CCN(S(=O)(=O)CCc1nccs1)CC2 [Compound 345, 2-Cyclohexyl-8-(2-thiazol-2-yl-ethanesulfonyl)-1,3,8-triaza-spiro[4.5]dec-1-en-4-one]"
3,90,"Cc1cc(C(=O)N(C)C)ccc1CCS(=O)(=O)N1CCC2(CC1)N=C(C1CCC(C(C)(C)C)CC1)NC2=O (stereo not drawn) [Compound 895, 4-{2-[2-(4-tert-butyl-cyclohexyl)-4-oxo-1,3,8-triaza-spiro[4.5]dec-1-ene-8-sulfonyl]-ethyl}-3,N,N-trimethyl-benzamide]"
4,15,Cc1cc2ccc1CCS(=O)(=O)N1CCC3(CC1)N=C(NC3=O)c1cc(cc(C(F)(F)F)c1)OCC/C=C/CNC(=O)CN(C)C2=O [Compound 1422]
